Molecular target: Cystathionine gamma-lyase (Homo sapiens, UniProt P32929)
Test: CSE In Vitro Assay

Chain of Cystathionine gamma-lyase (P32929 whole entry): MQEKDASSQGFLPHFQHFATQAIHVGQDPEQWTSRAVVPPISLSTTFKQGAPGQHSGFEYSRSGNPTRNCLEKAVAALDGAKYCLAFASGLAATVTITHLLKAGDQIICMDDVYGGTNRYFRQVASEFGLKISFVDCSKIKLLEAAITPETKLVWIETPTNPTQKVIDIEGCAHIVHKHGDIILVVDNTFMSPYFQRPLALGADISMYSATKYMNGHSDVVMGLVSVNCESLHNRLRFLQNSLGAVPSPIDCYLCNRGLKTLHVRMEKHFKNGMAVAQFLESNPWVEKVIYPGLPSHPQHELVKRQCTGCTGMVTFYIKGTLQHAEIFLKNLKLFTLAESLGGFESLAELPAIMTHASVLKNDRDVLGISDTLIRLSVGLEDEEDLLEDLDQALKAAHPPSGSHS

Row | Structure (SMILES) | IC50 [µM]
1 | N#CCC(N)c1nnn[nH]1 (configuration not stated) [US10227314, Example 1] | > 100
2 | C#CC[C@H](N)c1nnn[nH]1 [US10227314, Example 2] | < 25

Reference: BindingDB's records for patent US10227314 (Sova Pharmaceuticals, 2019)
